{"source": "patent US12295937B2", "about": "“Psychoactive medicines and their use for treating psychiatric and neurological conditions and disorders” (Transcend Therapeutics, Inc., priority 2021, dated 2025)", "key": {"[1]": {"assay": "IMPACT-1 Part A open-label study in PTSD", "type": "in vivo, human", "set-up": "Anxiety Sub-Scale of MADRS, score reduction / Participants with absence of Reduced Sleep (MADRS): concentration or dose not given beside the values", "experimental": "For each participant in Parts A and B, the study consists of: • Screening Period (Day −28 to Day −4): Informed consent, eligibility assessment, and enrolment of eligible participants. • Baseline/Preparatory Session (Day −3 to Day −1): Baseline assessments, confirmation of eligibility, and a preparatory psychoeducation session leading to enrolment confirmation. • Treatment Period (Day 1 to Day 24): Four weekly dose sessions, with associated remote sessions. The dose sessions last at least 8 hours, or until all effects (physical and psychological) have resolved (whichever is longer). Each dose session is followed by a safety phone call 1 day after dosing and efficacy assessments 2 days after dosing. Each dosing period is video recorded for quality and training purposes. The videos may be reviewed to ensure the Mentor is adhering to the Mentor training. • Follow-Up Period (Day 29 to Day 64): Follow-Up visits for safety and efficacy occur at 1, 2, 3 and 6 weeks post-final study drug administration. In addition, there are Mentor-Led Reflection Sessions 1, 2 and 3 weeks post-final study drug administration. Participants are contacted via telephone on Day 57 (±2 days) for Follow-Up. • Discontinuations: Participants who discontinue prematurely are asked to return for an extra visit to duplicate the 6-week end-of-study (EOS) visit.\nEach dose was given as an initial dose, followed by a second dose 90 minutes later. During the dosing session, participants were accompanied by a trained Mentor who provided non-directive support. After the 4-week treatment period, participants attended follow-up visits at 1, 2, 3, and 6 weeks following the last dose. Safety was assessed via standard measures including adverse events. PTSD symptoms were assessed via Clinician-Administered PTSD Scale for DSM-5 (CAPS-5), depressive symptoms were assessed via Montgomery-Åsberg Depression Rating Scale (MADRS). Anti-anxiety efficacy was evaluated using the Anxiety Sub-Scale of MADRS, namely, questions (Items 3, 4, 5, 6) that address four anxiety items (inner tension, reduced sleep, reduced appetite, concentration difficulties) Changes from baseline were analyzed using a paired t-test p-values.\nMethods: The IMPACT-1 study is a multi-center, two-part clinical trial. Part A has completed and was an open-label evaluation involving 14 participants with PTSD. Eligible participants are adults with severe PTSD (CAPS-5≥35) who had failed at least 1 prior treatment (pharmacotherapy and/or psychotherapy) for PTSD. […] Throughout each dosing session, participants were provided non-directive psychological support by a trained mental health practitioner. Following the 4-week treatment period, participants were followed for an additional 6 weeks to evaluate the durability of the therapeutic effect. PTSD symptom improvement was evaluated on the CAPS-5. Functioning was assessed via the 3 domains (school/work, family life, social life) of the Sheehan Disability Scale (SDS). Global improvement was measured by the CGI-I. Safety was assessed by monitoring adverse events, vital signs, and C-SSRS.\nFollowing the 4-week treatment period, participants were followed for an additional 6 weeks to evaluate the durability of the therapeutic effect. Sleep-related improvements were evaluated on the CAPS-5 (including distressing dreams [item B2; scores range 0 to 4] and sleep disturbances [item E6; scores range 0 to 4]), the Pittsburgh Sleep Quality Index (PSQI; total scores range 0 to 21) and subscales, and the reduced sleep item of the Montgomery-Åsberg Depression Rating Scale (MADRS; scores range 0 to 6)."}, "5HT5A": {"target": "T1, 5HT5A (Homo sapiens, UniProt P47898)", "T1 construct": "host or cells: PathHunter cell lines", "T1 sequence (P47898 whole entry)": "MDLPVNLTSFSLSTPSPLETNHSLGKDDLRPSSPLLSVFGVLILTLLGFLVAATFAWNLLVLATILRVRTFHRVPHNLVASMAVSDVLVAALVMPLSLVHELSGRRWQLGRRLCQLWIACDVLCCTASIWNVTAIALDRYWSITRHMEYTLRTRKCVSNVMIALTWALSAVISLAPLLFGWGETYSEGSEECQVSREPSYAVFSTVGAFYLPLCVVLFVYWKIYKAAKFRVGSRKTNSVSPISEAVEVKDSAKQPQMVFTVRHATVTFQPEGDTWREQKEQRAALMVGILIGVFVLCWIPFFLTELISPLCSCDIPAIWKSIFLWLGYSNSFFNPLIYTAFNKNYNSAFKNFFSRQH", "assay": "GPCRmax screen, agonist mode, 5HT5A", "type": "cell-based", "settings": "1 or 10 mM"}}, "data": [{"smiles": "CNC(C)C(=O)c1ccc2c(c1)OCO2", "note": "(stereo not drawn) [Methylone, 3,4-methylenedioxy-N-methylcathinone]", "values": [{"measurement": "CAPS-5 score decrease", "setting": "[1]; 6 weeks after the last dose", "value": 36.2, "unit": "points"}, {"measurement": "MADRS score decrease", "setting": "[1]; 6 weeks after the last dose", "value": 21.4, "unit": "points"}, {"measurement": "Anxiety Sub-Scale of MADRS, score reduction", "setting": "[1]; Day 3", "value": 20, "unit": "%"}, {"measurement": "CAPS-5 score decrease", "setting": "[1]; Day 3", "value": 8.4, "unit": "points"}, {"measurement": "MADRS score decrease", "setting": "[1]; Day 3", "value": 8.2, "unit": "points"}, {"measurement": "Anxiety Sub-Scale of MADRS, score reduction", "setting": "[1]; Day 10", "value": 43, "unit": "%"}, {"measurement": "CAPS-5 score decrease", "setting": "[1]; Day 10", "value": 23.3, "unit": "points"}, {"measurement": "MADRS score decrease", "setting": "[1]; Day 10", "value": 16.2, "unit": "points"}, {"measurement": "Participants achieving remission (CAPS-5)", "setting": "[1]; Day 10", "value": "~40", "unit": "%"}, {"measurement": "Participants much or very much improved (CGI-I)", "setting": "[1]; Day 10, two days after the 2nd dose", "value": "~70", "unit": "%"}, {"measurement": "Anxiety Sub-Scale of MADRS, score reduction", "setting": "[1]; Day 17", "value": 50, "unit": "%"}, {"measurement": "Anxiety Sub-Scale of MADRS, score reduction", "setting": "[1]; Day 24", "value": 57, "unit": "%"}, {"measurement": "Anxiety Sub-Scale of MADRS, score reduction", "setting": "[1]; Day 29", "value": 56, "unit": "%"}, {"measurement": "Anxiety Sub-Scale of MADRS, score reduction", "setting": "[1]; Day 36", "value": 66, "unit": "%"}, {"measurement": "Anxiety Sub-Scale of MADRS, score reduction", "setting": "[1]; Day 43", "value": 64, "unit": "%"}, {"measurement": "Anxiety Sub-Scale of MADRS, score reduction", "setting": "[1]; Day 64", "value": 66, "unit": "%"}, {"measurement": "SDS score, Family Life", "setting": "[1]; Day 64", "value": "3.1 (3.45)"}, {"measurement": "SDS score, Mean Overall", "setting": "[1]; Day 64", "value": "3.1 (3.12)"}, {"measurement": "SDS score, Social Life", "setting": "[1]; Day 64", "value": "3.2 (3.39)"}, {"measurement": "SDS score, Work/School", "setting": "[1]; Day 64", "value": "3.3 (3.78)"}, {"measurement": "TEAE: Bruxism", "setting": "[1]; N = 14", "value": 14.3, "unit": "%"}, {"measurement": "TEAE: Decreased appetite", "setting": "[1]; N = 14", "value": 28.6, "unit": "%"}, {"measurement": "TEAE: Dizziness", "setting": "[1]; N = 14", "value": 14.3, "unit": "%"}, {"measurement": "TEAE: Fatigue", "setting": "[1]; N = 14", "value": 21.4, "unit": "%"}, {"measurement": "TEAE: Headache", "setting": "[1]; N = 14", "value": 42.9, "unit": "%"}, {"measurement": "TEAE: Hyperhidrosis", "setting": "[1]; N = 14", "value": 14.3, "unit": "%"}, {"measurement": "TEAE: Influenza-like illness", "setting": "[1]; N = 14", "value": 14.3, "unit": "%"}, {"measurement": "TEAE: Insomnia", "setting": "[1]; N = 14", "value": 14.3, "unit": "%"}, {"measurement": "TEAE: Nasopharyngitis", "setting": "[1]; N = 14", "value": 14.3, "unit": "%"}, {"measurement": "TEAE: Non-cardiac chest pain", "setting": "[1]; N = 14", "value": 21.4, "unit": "%"}, {"measurement": "Drug-related serious adverse events", "setting": "[1]; Part A", "value": "No drug-related SAEs occurred"}, {"measurement": "TEAE: Any AE", "setting": "[1]; Safety Population N = 14", "value": 78.6, "unit": "%"}, {"measurement": "CAPS-5 mean change from baseline", "setting": "[1]; after the first dose", "value": "−8.4", "unit": "points"}, {"measurement": "SDS mean change from baseline", "setting": "[1]; after the first dose", "value": "−1.53"}, {"measurement": "Participants with absence of Distressing Dreams", "setting": "[1]; after treatment", "value": 77, "unit": "%"}, {"measurement": "Participants with absence of Reduced Sleep (MADRS)", "setting": "[1]; after treatment", "value": 62, "unit": "%"}, {"measurement": "Participants with absence of Sleep Disturbances", "setting": "[1]; after treatment", "value": 62, "unit": "%"}, {"measurement": "CAPS-5 Distressing Dreams (item B2) mean score", "setting": "[1]; after treatment, baseline 2.2", "value": 0.38}, {"measurement": "CAPS-5 Sleep Disturbances (item E6) mean score", "setting": "[1]; after treatment, baseline 3.3", "value": 0.92}, {"measurement": "MADRS Reduced Sleep mean score", "setting": "[1]; after treatment, baseline 4.3", "value": 1.08}, {"measurement": "PSQI total mean score", "setting": "[1]; end of study", "value": 9.4}, {"measurement": "Participants having mild or no impairment (SDS)", "setting": "[1]; end of study", "value": "> 50", "unit": "%"}, {"measurement": "PSQI total score improvement", "setting": "[1]; end of study (6 weeks after the last dose), baseline 13.5", "value": "−4.0", "unit": "points"}, {"measurement": "CAPS-5 mean change from baseline", "setting": "[1]; end of study visit (6 weeks after the last dose)", "value": "−36.2", "unit": "points"}, {"measurement": "Change in number of days lost", "setting": "[1]; end of the 4-week treatment period, baseline 2.6", "value": -2.0, "unit": "days"}, {"measurement": "Change in number of days underproductive", "setting": "[1]; end of the 4-week treatment period, baseline 4.7", "value": -3.3, "unit": "days"}, {"measurement": "Participants achieving remission (CAPS-5)", "setting": "[1]; end of the study", "value": 61.5, "unit": "%"}, {"measurement": "Participants much or very much improved (CGI-I)", "setting": "[1]; end of the study", "value": "all participants"}, {"measurement": "Patient-reported chronic pain after methylone", "setting": "[1]; one subject, knees, before 7-8 and 8-9 out of 10", "value": "2-3 out of 10"}, {"measurement": "SDS mean change from baseline", "setting": "[1]; through the 6-week follow-up period", "value": "−4.26"}, {"measurement": "Agonist % activity (greatest activity detected)", "setting": "5HT5A", "value": 13.9, "unit": "%"}]}]}
